According to patent US10017509B2, “Macrocylic pyrimidine derivatives” (Janssen Pharmaceutica NV, priority 2014, dated 2018):

Columns and labels:
[1] = biological target: T1, EF2K (Homo sapiens, UniProt O00418); assay: Biochemical EF2K lysate-based kinase assay (AlphaLISA p-eEF2 Thr56); settings: pIC50 = -log IC50 (M), read-out: eEF2K_C_alphalisa pIC50 (converted)
T1 construct: host or cells: LN-229 cell lysate
T1 sequence (O00418 1-725): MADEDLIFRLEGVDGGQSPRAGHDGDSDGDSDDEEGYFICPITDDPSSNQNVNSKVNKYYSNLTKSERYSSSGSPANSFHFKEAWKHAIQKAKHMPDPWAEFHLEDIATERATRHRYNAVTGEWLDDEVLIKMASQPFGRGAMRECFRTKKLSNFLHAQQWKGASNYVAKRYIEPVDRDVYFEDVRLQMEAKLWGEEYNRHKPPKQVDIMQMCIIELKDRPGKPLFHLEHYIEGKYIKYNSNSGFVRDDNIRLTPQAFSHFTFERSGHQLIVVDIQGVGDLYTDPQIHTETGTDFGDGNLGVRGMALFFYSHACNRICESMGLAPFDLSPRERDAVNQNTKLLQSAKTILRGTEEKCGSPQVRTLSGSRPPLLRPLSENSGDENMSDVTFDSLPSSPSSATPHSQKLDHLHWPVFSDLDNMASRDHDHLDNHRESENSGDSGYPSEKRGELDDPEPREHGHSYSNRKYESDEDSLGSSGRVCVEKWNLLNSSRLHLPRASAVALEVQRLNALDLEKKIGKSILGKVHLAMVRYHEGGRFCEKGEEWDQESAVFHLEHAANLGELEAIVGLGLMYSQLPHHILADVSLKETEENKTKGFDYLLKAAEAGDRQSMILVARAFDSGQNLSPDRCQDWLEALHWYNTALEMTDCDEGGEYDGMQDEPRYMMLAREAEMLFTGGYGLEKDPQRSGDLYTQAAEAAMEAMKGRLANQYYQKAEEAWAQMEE
Outline: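 LN-229 glioblastoma lysate supplied both EF2K and eEF2 substrate; compound incubated 15 min at room temperature in pH 6.6 buffer with 10 mM Mg2+ and 10 mM ATP. EDTA-stopped; phospho-eEF2 Thr56 quantified by AlphaLISA sandwich, final read after overnight. Values as pIC50.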

[2] = biological target: Vps34 (PIK3C3 lipid kinase) (Homo sapiens, UniProt Q8NEB9); assay: Biochemical Vps34 lipid kinase assay (ADP-Glo); settings: for remaining activity at 1 µM: 1 h, read-out: VPS34_1microM_% of cntrl; for IC50: serial half-log dilution 10 μM to 0.3 nM, pIC50 = -log IC50 (M)
Outline: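 ADP-Glo luminescence assay of PIK3C3 (7.6 nM) with 50 µM substrate and 20 µM ATP (apparent Km) in HEPES pH 7.5, 100 mM NaCl, 3 mM MnCl2, CHAPS, DTT; 60 min, 30 °C. Single dose 1 µM (residual activity vs DMSO) or half-log series 10 µM-0.3 nM giving pIC50.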

[3] = biological target: T1, EF2K; assay: EF2K cell-based assay (P-EF2 AlphaLISA, 2-deoxyglucose stimulated MCF10A cells); settings: 2.5 mM 2-deoxyglucose stimulated, P-EF2 Thr56, pIC50 = -log IC50 (M), read-out: eEF2K_C_PThr56 pIC50 (converted)
Outline: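 MCF10A cells, after 24 h culture, treated 1 h with compound then stimulated 4 h with 2.5 mM 2-deoxyglucose to activate AMPK. Lysates in M-PER with protease/phosphatase inhibitors assayed for P-EF2 by AlphaLISA; pIC50 = −log IC50 (M).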

[4] = single dose 1 μM compound, residual activity compared to control (DMSO)

Sequence of Vps34 (PIK3C3 lipid kinase) (Q8NEB9 whole entry, species assumed): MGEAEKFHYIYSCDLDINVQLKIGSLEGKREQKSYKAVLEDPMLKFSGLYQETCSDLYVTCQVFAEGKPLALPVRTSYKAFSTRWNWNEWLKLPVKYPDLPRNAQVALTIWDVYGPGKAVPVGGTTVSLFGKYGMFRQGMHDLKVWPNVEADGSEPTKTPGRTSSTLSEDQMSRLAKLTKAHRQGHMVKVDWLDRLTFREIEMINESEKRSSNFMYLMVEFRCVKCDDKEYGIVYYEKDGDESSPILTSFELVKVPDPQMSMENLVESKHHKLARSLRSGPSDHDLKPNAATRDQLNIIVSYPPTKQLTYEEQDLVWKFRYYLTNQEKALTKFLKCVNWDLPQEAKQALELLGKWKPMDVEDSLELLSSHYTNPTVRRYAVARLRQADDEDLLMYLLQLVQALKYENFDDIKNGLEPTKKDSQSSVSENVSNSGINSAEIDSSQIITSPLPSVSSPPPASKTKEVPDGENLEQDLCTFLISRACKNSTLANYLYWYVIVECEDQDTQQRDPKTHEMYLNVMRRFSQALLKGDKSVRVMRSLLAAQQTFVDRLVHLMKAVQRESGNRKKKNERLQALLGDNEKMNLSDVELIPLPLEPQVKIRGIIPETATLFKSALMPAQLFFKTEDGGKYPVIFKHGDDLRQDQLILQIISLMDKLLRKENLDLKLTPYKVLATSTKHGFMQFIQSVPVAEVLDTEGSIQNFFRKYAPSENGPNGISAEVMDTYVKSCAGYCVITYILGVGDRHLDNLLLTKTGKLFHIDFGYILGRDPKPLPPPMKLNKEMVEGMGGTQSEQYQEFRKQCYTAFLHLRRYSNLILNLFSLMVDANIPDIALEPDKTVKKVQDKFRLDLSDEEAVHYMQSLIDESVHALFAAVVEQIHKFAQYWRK

| Structure (SMILES) | IC50 [1] | remaining activity at 1 µM [2, 4] | IC50 [2] | IC50 [3] | VPS34_1microM_% of cntrl [2, 4] |
| --- | --- | --- | --- | --- | --- |
| CC(C)N1CCCNc2ccc(cn2)-c2ccnc(n2)Nc2cccc(c2)CN2CCN(CC2)CC1=O [Compound 22] | 7.24e-06 M | 17.3% | 6.17e-06 M | > 3.02e-05 M | – |
| CN1CCCN(C)c2ccc(cn2)-c2ccnc(n2)Nc2cccc(c2)CN2CCN(CC1=O)CC2COCCN1CCOCC1 (single isomer, unassigned) [Compound 100] | 6.46e-08 M | 43% | – | 1.48e-05 M | – |
| CN1CCCN(C)c2ccc(cn2)-c2ccnc(n2)Nc2cncc(c2)CN2CCN(CC2)CC1=O [Compound 33] | 6.61e-07 M | 23.9% | 7.41e-07 M | 2.14e-05 M | – |
| CN1CCCN(C)c2ccc(cn2)-c2ccnc(n2)Nc2cccc(c2)CN2CCN(CC1=O)CC2CO (centres unmarked) [Compound 51] | 1.55e-07 M | 14.6% | 4.79e-07 M | 1.55e-05 M | – |
| O=C1CN2CCN(CC2)Cc2cccc(c2)Nc2nccc(n2)-c2ccc(nc2)N2CCCC2CN1 (centres unmarked) [Compound 80] | 1.74e-07 M | – | – | 5.5e-06 M | 63.22 % of cntrl |
| Cc1cc2cc(c1)Nc1nccc(n1)-c1ccc(nc1)N(C)CCCN(C)C(=O)CN1CCN(CC1)C2 [Compound 8] | 1.41e-05 M | 41.1% | – | > 3.02e-05 M | – |
| CNC(=O)c1ccc2cc1CN1CCN(CC1)CC(=O)N(C)CCCN(C)c1ccc(cn1)-c1ccnc(n1)N2 [Compound 12] | 2.09e-07 M | 7.68% | 4.37e-07 M | 1.05e-05 M | – |
| CN1CCN2Cc3cccc(c3)Nc3nccc(n3)-c3ccc(nc3)NCCCNC(=O)CC1C2 (centres unmarked) [Compound 71] | 7.59e-06 M | 12% | 1.74e-08 M | > 3.02e-05 M | – |
| CN1CCCNc2ccc(cn2)-c2ccnc(n2)Nc2cccc(c2)CN2CCN(CC1=O)C(=O)C2 [Compound 127] | 3.72e-06 M | 19.2% | 3.55e-07 M | > 3.02e-05 M | – |
| O=C1CC2CCN(CC2)Cc2cccc(c2)Nc2nccc(n2)-c2ccc(nc2)NCCCN1 [Compound 79] | > 3.02e-05 M | 24.3% | 6.03e-07 M | > 3.02e-05 M | – |
| O=C1CN2CCN(CCc3cccc(c3)Nc3nccc(n3)-c3ccc(nc3)NCCCN1)CC2 [Compound 118] | 7.94e-06 M | 8.1% | 1.41e-07 M | > 3.02e-05 M | – |
| CN1CCCN(C)c2ccc(cn2)-c2ccnc(n2)Nc2cccc(c2)C(=O)N2CCN(CC2)CC1=O [Compound 28] | ~5.5e-08 M | 45.6% | – | > 3.02e-05 M | – |
| CN1CCCN(C)c2ccc(cc2)-c2ccnc(n2)Nc2cccc(c2)CN2CCN(CC1=O)C(C(=O)OCc1ccccc1)C2 (centres unmarked) [Compound 92] | 8.91e-08 M | 38.3% | – | > 3.02e-05 M | – |
